Laboratory results from ChEMBL document CHEMBL3885881, “DrugMatrix”.

Organism: Rattus norvegicus
Type: toxicity, organism-based, Sprague-Dawley
Settings: in vivo, po, 24 h, route oral GAVAGE, time 1 day, […]; for ABSOLUTE BASOPHIL / ABSOLUTE EOSINOPHIL / ABSOLUTE LYMPHOCYTE / ABSOLUTE MONOCYTE / BASOPHIL / EOSINOPHIL / ERYTHROCYTE COUNT / HEMATOCRIT / HEMOGLOBIN / LEUKOCYTE COUNT / LYMPHOCYTE / MEAN CORPUSCULAR HEMOGLOBIN / MEAN CORPUSCULAR HEMOGLOBIN CONCENTRATION / MEAN CORPUSCULAR VOLUME / MONOCYTE / NEUTROPHIL / PLATELET COUNT: tissue Blood; for ALANINE AMINOTRANSFERASE / ALBUMIN / ALKALINE PHOSPHATASE / ASPARTATE AMINOTRANSFERASE / BLOOD UREA NITROGEN / CARBON DIOXIDE / CHLORIDE / CHOLESTEROL / CREATINE PHOSPHOKINASE / CREATININE / GLUCOSE / LACTATE DEHYDROGENASE / LIPASE / PHOSPHORUS / POTASSIUM / SODIUM / TOTAL BILIRUBIN / TOTAL PROTEIN / URIC ACID: tissue Plasma
[1] = 0 mg/kg, vehicle control, dose level Control

Description: DrugMatrix - Regimen: Single

`Clc1ccc(Cl)cc1` [1,4-DICHLOROBENZENE] showed an ABSOLUTE BASOPHIL [1] of 46.7 cells/µL, an ABSOLUTE EOSINOPHIL [1] of 130 cells/µL and an ABSOLUTE LYMPHOCYTE [1] of 8720 cells/µL. It also gave an ABSOLUTE MONOCYTE [1] of 140 cells/µL, a BASOPHIL [1] of 0.43% and an EOSINOPHIL [1] of 1.33%. For the same compound, the “ERYTHROCYTE COUNT” value [1] was 6.45 x10E6/uL, the HEMATOCRIT [1] was 42.2% and the HEMOGLOBIN [1] was 13.33 G/DL. For the same compound, the “LEUKOCYTE COUNT” value [1] was 10.59 x10E3/uL, the LYMPHOCYTE [1] was 82.13% and the “MEAN CORPUSCULAR HEMOGLOBIN” value [1] was 20.67 pg. For the same compound, the “MEAN CORPUSCULAR HEMOGLOBIN CONCENTRATION” value [1] was 31.6 G/DL, the “MEAN CORPUSCULAR VOLUME” value [1] was 65.4 fL and the MONOCYTE [1] was 1.37%. For the same compound, the NEUTROPHIL [1] was 14.3%, the “PLATELET COUNT” value [1] was 1048.67 x10E3/uL and the “ALANINE AMINOTRANSFERASE” value [1] was 44 u/L. The ALBUMIN [1] was 3.93 G/DL, the “ALKALINE PHOSPHATASE” value [1] was 551.33 u/L and the “ASPARTATE AMINOTRANSFERASE” value [1] was 97 u/L. The “BLOOD UREA NITROGEN” value [1] was 13.5 mg/dL, the “CARBON DIOXIDE” value [1] was 37.33 mmol/L and the CHLORIDE [1] was 102.33 MEQ/L. For the same compound, the CHOLESTEROL [1] was 83 mg/dL, the “CREATINE PHOSPHOKINASE” value [1] was 365.33 u/L and the CREATININE [1] was 0.4 mg/dL. For the same compound, the GLUCOSE [1] was 189 mg/dL, the “LACTATE DEHYDROGENASE” value [1] was 170.33 u/L and the LIPASE [1] was 10.67 u/L. The PHOSPHORUS [1] was 11.53 mg/dL, the POTASSIUM [1] was 5.63 MEQ/L and the SODIUM [1] was 144.33 MEQ/L. The “TOTAL BILIRUBIN” value [1] was 0.4 mg/dL, the “TOTAL PROTEIN” value [1] was 6.27 G/DL and the “URIC ACID” value [1] was 0.87 mg/dL. For the same compound, the ABSOLUTE BASOPHIL (900 mg/kg, dose level High) was 10 cells/µL, the ABSOLUTE EOSINOPHIL (900 mg/kg, dose level High) was 23.3 cells/µL and the ABSOLUTE LYMPHOCYTE (900 mg/kg, dose level High) was 4230 cells/µL. It also gave an ABSOLUTE MONOCYTE (900 mg/kg, dose level High) of 80 cells/µL, a BASOPHIL (900 mg/kg, dose level High) of 0.2% and an EOSINOPHIL (900 mg/kg, dose level High) of 0.5%. For the same compound, the “ERYTHROCYTE COUNT” value (900 mg/kg, dose level High) was 6.97 x10E6/uL, the HEMATOCRIT (900 mg/kg, dose level High) was 46.93% and the HEMOGLOBIN (900 mg/kg, dose level High) was 15 G/DL. The “LEUKOCYTE COUNT” value (900 mg/kg, dose level High) was 5.04 x10E3/uL, the LYMPHOCYTE (900 mg/kg, dose level High) was 83.5% and the “MEAN CORPUSCULAR HEMOGLOBIN” value (900 mg/kg, dose level High) was 21.5 pg. The “MEAN CORPUSCULAR HEMOGLOBIN CONCENTRATION” value (900 mg/kg, dose level High) was 31.97 G/DL, the “MEAN CORPUSCULAR VOLUME” value (900 mg/kg, dose level High) was 67.33 fL and the MONOCYTE (900 mg/kg, dose level High) was 1.67%. The NEUTROPHIL (900 mg/kg, dose level High) was 13.93%, the “PLATELET COUNT” value (900 mg/kg, dose level High) was 1227 x10E3/uL and the “ALANINE AMINOTRANSFERASE” value (900 mg/kg, dose level High) was 45.33 u/L. The ALBUMIN (900 mg/kg, dose level High) was 3.87 G/DL, the “ALKALINE PHOSPHATASE” value (900 mg/kg, dose level High) was 421.33 u/L and the “ASPARTATE AMINOTRANSFERASE” value (900 mg/kg, dose level High) was 99.33 u/L. For the same compound, the “BLOOD UREA NITROGEN” value (900 mg/kg, dose level High) was 12.67 mg/dL, the “CARBON DIOXIDE” value (900 mg/kg, dose level High) was 34.67 mmol/L and the CHLORIDE (900 mg/kg, dose level High) was 103 MEQ/L. For the same compound, the CHOLESTEROL (900 mg/kg, dose level High) was 65.67 mg/dL, the “CREATINE PHOSPHOKINASE” value (900 mg/kg, dose level High) was 827.67 u/L and the CREATININE (900 mg/kg, dose level High) was 0.5 mg/dL. For the same compound, the GLUCOSE (900 mg/kg, dose level High) was 188.67 mg/dL, the “LACTATE DEHYDROGENASE” value (900 mg/kg, dose level High) was 235.33 u/L and the LIPASE (900 mg/kg, dose level High) was 15.67 u/L. For the same compound, the PHOSPHORUS (900 mg/kg, dose level High) was 13.87 mg/dL, the POTASSIUM (900 mg/kg, dose level High) was 6 MEQ/L and the SODIUM (900 mg/kg, dose level High) was 142.67 MEQ/L. For the same compound, the “TOTAL BILIRUBIN” value (900 mg/kg, dose level High) was 0.8 mg/dL, the “TOTAL PROTEIN” value (900 mg/kg, dose level High) was 6.33 G/DL and the “URIC ACID” value (900 mg/kg, dose level High) was 0.7 mg/dL.
